Entries after “also recorded” stand apart in the source; their conditions may differ.
Experiments:
Assay type in all cases: in vivo, human
[1] = test system: liver function of NASH subjects; assay: HepQuant-SHUNT test: disease severity index (DSI) score
Excerpt: The HepQuant®-SHUNT test uses simultaneous orally administered d4-cholate and intravenously administered 13C-cholate (i.e. intravenous (24-^13C cholate) and oral (2,2,4,4-^2H cholate) together with mass spectrometry analysis of five serum samples from the subject to accurately measure liver function and generate a disease severity index (DSI) score. HepQuant®-STAT is a simpler test that uses only orally administered d4-cholate and a single serum sample from the subject to estimate liver function (STAT).
Briefly, the HepQuant®-SHUNT test allows for simultaneous measurement of the perfusion/uptake from portal circulation and perfusion/uptake from systemic circulation, as shown in FIGS. 1 and 2. In a HepQuant®-SHUNT test, a subject is orally administered 40 mg of d4-cholate and intravenously administered 20 mg of 13C-cholate. Blood samples are then isolated from the subject at 5, 20, 45, 60 and 90 minutes after cholate administration. For each sample, mass spectrometry is used to determine the Portal Hepatic Filtration Rate (Portal HFR) and Systemic Hepatic Filtration Rate (Systemic HFR). The Portal HFR is defined as the clearance of 4D-cholate (dose AUC^−1 kg body weight^−1, typically mL mini kg^−1) and the Systemic HFR is defined as the clearance of 13C-cholate (dose AUC^−1 kg body weight^−1, typically mL min^−1 kg^−1). The Portal HFR and Systemic HFR can then be used to calculate a Disease Severity Index (DSI) score. The DSI can be used to determine the extent of liver function, and therefore the extent of liver damage/disease in the subject. Thus, the DSI score can be used to diagnose a subject with a disease. For example, a DSI greater than 16.5 can indicate that the subject will likely have biopsy-proven NASH. A DSI score can also be used to determine the percent likelihood of endoscopic finding of varices in subjects with NASH or hepatitis C virus infection, as shown in FIG. 3. DSI scores can also be measured multiple times during a course of treatment described herein (a treatment regimen) to determine the efficacy of the course of treatment. For example, a baseline DSI score can be measured by performing a HepQuant®-SHUNT test prior to the start of the treatment regimen (i.e. prior to the first administration of the treatment regimen) and then a second DSI score can be measured at a time point during the treatment regimen. The first and second DSI scores can compared to determine a DSI difference score. For example, a reduction in DSI score from the baseline measurement can indicate that the course of treatment is beneficial as the subject's liver function is improving. Depending on the DSI difference score, the treatment regimen can be adjusted, continued or discontinued.
In some aspects, a DSI difference score that is greater than or equal to 2 (i.e. a decrease in the DSI scores of 2 or more over the course of treatment) is considered to be clinically meaningful, based on reducing the probability of any varices from approximately 30% to 20% for subjects with a baseline DSI of 20.
As part of the HepQuant®-SHUNT test, labeled cholate was administered intravenously and orally. The HepQuant®-SHUNT tests were used to determine disease severity index (DSI) scores.

[2] = test system: subjects with nonalcoholic steatohepatitis with fibrosis; assay: Phase 1 study: liver chemistries (ALT, AST, GGT, bilirubin, ALP); details: Day 85 compared to baseline
Excerpt: (§1) The secondary objectives of this study are to evaluate the pharmacodynamics of OCA on FXR activation and to evaluate liver chemistries and the pharmacodynamics of OCA on biomarkers of NASH, including inflammation, apoptosis, and oxidation stress.

[3] = Phase 1 study: plasma pharmacokinetics of total OCA; details: 10 mg QD or 25 mg QD
Excerpt: (§2) The primary objectives of this study are to evaluate the safety and tolerability of OCA treatment in subjects with NASH with fibrosis and to evaluate single- and multiple-dose pharmacokinetics of OCA, its conjugates, and metabolites in subjects with NASH with fibrosis.
Furthermore, although there were a limited number of subjects having a fibrosis score of F4, plasma exposure was lower in these subjects as compared to the subjects with a fibrosis score of F1 or F2/F3.

[4] = Phase 1 study: liver exposure of OCA and its conjugates
[5] = test system: subjects with nonalcoholic steatohepatitis with fibrosis; assay: Phase 1 placebo-controlled study: safety and tolerability (TEAE incidence); details: for Total Number of TEAEs: 85 days; for Total Number of TEAEs / Any Serious TEAE / Constipation (TEAE incidence) / Diabetes mellitus (TEAE) / Fatigue (TEAE incidence) / Headache (TEAE incidence) / Hepatobiliary disorders (SOC) (TEAE) / Hypercholesterolemia (TEAE) / LDL Increased, Mild (maximum severity) / LDL Increased, Moderate (maximum severity) / LDL Increased, Severe (maximum severity) / Low density lipoprotein increased (TEAE incidence) / Nausea (TEAE incidence) / Pneumonia (TEAE incidence) / Pruritis (TEAE incidence) / Pruritus, Mild (maximum severity) / Pruritus, Moderate (maximum severity) / Pruritus, Severe (maximum severity) / Subjects with at least one TEAE: n = 20
Excerpt: Example 1: A Phase 1, Double-Blind, Randomized, Placebo-Controlled Study to Evaluate Safety, Pharmacokinetics, and Pharmacodynamics of Obeticholic Acid in Subjects with Nonalcoholic Steatohepatitis with Fibrosis
as §2
The study comprised three treatment groups-10 mg QD, 25 mg QD and Placebo QD.

[6] = test system: FXR activation; assay: Phase 1 study: pharmacodynamic markers of FXR activation (C4, bile acids, FGF-19); details: Day 85 compared to baseline
Excerpt: as §1
Furthermore, plasma bile acids were suppressed by administration of OCA, but no dose response was observed.

plasma exposure of OCA, NASH subjects vs healthy subjects ([3]; day 1 and day 85): modestly higher in NASH subjects | plasma exposure in F4 subjects compared to F1 or F2/F3 ([3]; limited number of F4 subjects): lower
Compound: CC[C@H]1[C@@H](O)[C@@H]2[C@H](CC[C@]3(C)[C@@H]([C@H](C)CCC(=O)O)CC[C@@H]23)[C@@]2(C)CC[C@@H](O)C[C@@H]12 [OCA, 3α,7α-dihydroxy-6α-ethyl-5β-cholan-24-oic acid]
reduction in DSI ([1]; 10 mg QD or 25 mg QD, Day 85, greater response at 25 mg QD): dose-dependent and clinically meaningful reduction; also recorded: dose-dependent response | subjects treated with OCA among the 18 subjects with clinically relevant ΔDSI of at least −2 ([1]; F1, F2/F3 or F4, 10 mg QD or 25 mg QD, Day 85): 17 subjects | Responders (≥2 point decrease in DSI), % ([1]; F1, OCA 10 mg QD, Day 85, n = 3): (67) % | Responders (≥2 point decrease in DSI), % ([1]; F1, OCA 25 mg QD, Day 85, n = 5): (20) % | change in DSI score (Day 85−Baseline) vs placebo ([1]; F2/F3 NASH subjects, greatest effect at 25 mg QD): greater improvement in DSI score | Responders (≥2 point decrease in DSI), % ([1]; F4, OCA 10 mg QD, Day 85, n = 2): (50) % | Responders (≥2 point decrease in DSI), % ([1]; F4, OCA 25 mg QD, Day 85, n = 1): (100) % | ALP levels, change from baseline [2]: dose dependent increase | biochemistry markers of hepatic cytotoxicity and dysfunction (ALT, AST, GGT, total bilirubin, direct bilirubin) ([2]; no dose-dependent response): suppressed | liver exposure of OCA across fibrosis scores ([4]; 10 mg QD, F1 or F2/F3): generally similar across subjects with different fibrosis scores | liver exposure of OCA across fibrosis scores ([4]; 25 mg QD, F1, F2/F3 or F4): generally similar across subjects with different fibrosis scores | liver exposure of OCA across fibrosis scores after normalization by dose ([4]; F1, F2/F3 or F4): generally similar across subjects with different fibrosis scores | TEAEs leading to study discontinuation ([5]; 10 mg QD and 25 mg QD for 12 weeks): no TEAEs leading to study discontinuation | safety and tolerability ([5]; 10 mg QD and 25 mg QD for 12 weeks, NASH subjects with fibrosis): generally safe and well tolerated | Total Number of TEAEs ([5]; OCA 10 mg QD): 29 | Any Serious TEAE ([5]; OCA 10 mg QD): 0 n (%) | Constipation (TEAE incidence) ([5]; OCA 10 mg QD): 2 (10%) n (%) | Diabetes mellitus (TEAE) ([5]; OCA 10 mg QD): 1 (5%) n (%) | Fatigue (TEAE incidence) ([5]; OCA 10 mg QD): 2 (10%) n (%) | Headache (TEAE incidence) ([5]; OCA 10 mg QD): 0 n (%) | Hepatobiliary disorders (SOC) (TEAE) ([5]; OCA 10 mg QD): 0 n (%) | Hypercholesterolemia (TEAE) ([5]; OCA 10 mg QD): 0 n (%) | LDL Increased, Mild (maximum severity) ([5]; OCA 10 mg QD): 2 (10%) n (%) | LDL Increased, Moderate (maximum severity) ([5]; OCA 10 mg QD): 0 n (%) | LDL Increased, Severe (maximum severity) ([5]; OCA 10 mg QD): 0 n (%) | Low density lipoprotein increased (TEAE incidence) ([5]; OCA 10 mg QD): 2 (10%) n (%) | Nausea (TEAE incidence) ([5]; OCA 10 mg QD): 0 n (%) | Pneumonia (TEAE incidence) ([5]; OCA 10 mg QD): 0 n (%) | Pruritis (TEAE incidence) ([5]; OCA 10 mg QD): 3 (15%) n (%) | Pruritus, Mild (maximum severity) ([5]; OCA 10 mg QD): 3 (15%) n (%) | Pruritus, Moderate (maximum severity) ([5]; OCA 10 mg QD): 0 n (%) | Pruritus, Severe (maximum severity) ([5]; OCA 10 mg QD): 0 n (%) | Subjects with at least one TEAE ([5]; OCA 10 mg QD): 12 (60%) n (%) | Total Number of TEAEs ([5]; OCA 25 mg QD): 36 | Any Serious TEAE ([5]; OCA 25 mg QD): 0 n (%) | Constipation (TEAE incidence) ([5]; OCA 25 mg QD): 2 (10%) n (%) | Diabetes mellitus (TEAE) ([5]; OCA 25 mg QD): 0 n (%) | Fatigue (TEAE incidence) ([5]; OCA 25 mg QD): 3 (15%) n (%) | Headache (TEAE incidence) ([5]; OCA 25 mg QD): 0 n (%) | Hepatobiliary disorders (SOC) (TEAE) ([5]; OCA 25 mg QD): 0 n (%) | Hypercholesterolemia (TEAE) ([5]; OCA 25 mg QD): 1 (5%) n (%) | LDL Increased, Mild (maximum severity) ([5]; OCA 25 mg QD): 1 (5%) n (%) | LDL Increased, Moderate (maximum severity) ([5]; OCA 25 mg QD): 1 (5%) n (%) | LDL Increased, Severe (maximum severity) ([5]; OCA 25 mg QD): 0 n (%) | Low density lipoprotein increased (TEAE incidence) ([5]; OCA 25 mg QD): 2 (10%) n (%) | Nausea (TEAE incidence) ([5]; OCA 25 mg QD): 0 n (%) | Pneumonia (TEAE incidence) ([5]; OCA 25 mg QD): 2 (10%) n (%) | Pruritis (TEAE incidence) ([5]; OCA 25 mg QD): 5 (25%) n (%) | Pruritus, Mild (maximum severity) ([5]; OCA 25 mg QD): 2 (10%) n (%) | Pruritus, Moderate (maximum severity) ([5]; OCA 25 mg QD): 3 (15%) n (%) | Pruritus, Severe (maximum severity) ([5]; OCA 25 mg QD): 0 n (%) | Subjects with at least one TEAE ([5]; OCA 25 mg QD): 15 (75%) n (%) | LDL cholesterol ([5]; OCA treatment groups (10 mg QD, 25 mg QD)): increase in LDL cholesterol | FGF-19 levels, percent change from baseline [6]: increased with OCA dose | C4 levels, percent change from baseline ([6]; no dose response): suppressed | plasma bile acids, percent change from baseline ([6]; no dose response): suppressed
